Test results taken from patent publication US20220054588A1, “USE OF SAP FOR THE TREATMENT OF EUROTIOMYCETES FUNGI INFECTIONS” (HUMANITAS MIRASOLE S.P.A., priority 2018, published 2022).

B1: recombinant murine SAP: recombinant murine SAP from mouse myeloma cell line NSO (R&D Systems) (protein, UniProt P12246 21-224, looked up)
Serum amyloid P-component: QTDLKRKVFVFPRESETDHVKLIPHLEKPLQNFTLCFRTYSDLSRSQSLFSYSVKGRDNELLIYKEKVGEYSLYIGQSKVTVRGMEEYLSPVHLCTTWESSSGIVEFWVNGKPWVKKSLQREYTVKAPPSIVLGQEQDNYGGGFQRSQSFVGEFSDLYMWDYVLTPQDILFVYRDSPVNPNILNWQALNYEINGYVVIRPRVWD

How the values were obtained:
A. fumigatus conidia = assay: FACS binding of biotin-conjugated murine SAP to A. fumigatus conidia, with competition; set-up: species or system Aspergillus fumigatus; conditions: Sap 10 μg/ml
Description: FIG. 1 depicts the interaction of SAP with A. fumigatus conidia in mice. a) induction of SAP circulating levels after i.t. injection of 5×10^7 A. fumigatus (AF) conidia; LPS, 0.8 mg/Kg. Mean±SD. c) FACS analysis of binding of biotin-conjugated (b-) murine SAP (Sap; 10 μg/ml) to viable dormant or germinating conidia of AF (1×10^8). Human SAP (50 μg/ml) and CRP (50 μg/ml) were also used. Mean±SD of one quadruplicate experiment of two performed.
FIG. 10 depicts the susceptibility to A. fumigatus associated with single or double deficiency for SAP and PTX3. a and b, survival of wt and Apcs^−/−, Ptx3^−/− and Apcs^−/−, Ptx3^−/− mice after i.t. injection of 1×10^8 (a) or 5×10^7 (b) conidia. a, wt, n=9 (a, b); n=9 (a, b); Ptx3^−/−, n=7 (a) or n=10 (b); Ptx3^−/−, n=5 (a) or n=12 (b). a, b, P<0.05, wt vs. Apcs^−/− P<0.01 wt vs. Apcs^−/−, Ptx3^−/−; P=0.06, Apcs^−/−, Ptx3^−/− vs. Ptx3^−/− (Mantel-Cox test). a) Curves of wt and Apcs^−/− refer to the same ones shown in FIG. 2a-c FACS analysis of Sap (range from 0.1 to 10 μg/ml) binding to viable AF conidia (1×10^8) in presence of Ptx3 (50 μg/ml). An anti-Sap monoclonal antibody (non-reactive to Ptx3) was used. Mean±SD of a triplicate. **, P<0.01;***, P<0.005;****, P<0.0001 (unpaired t-test).
(§1) Binding of SAP. Conidia of A. fumigatus and A. flavus (1×10^8 CFU) were cultured 4 and 16 h under static condition in Sabouraud medium to respectively allow conidia swelling and germination. Blastospores and yeast of Candida albicans were prepared as previously described (Santus et al., 2017). Yeast (8×10^6/ml) were incubated at 37° C. for hyphal induction. Formation of hyphae was evaluated under a microscope at different time points until its amount was assessed at 95%. […] After extensive washing, samples were incubated (30 min, r. t.) with Alexa Fluor® 647-conjugated streptavidin and binding was evaluated by FACS as frequency and MFI and visualized by confocal microscopy as described. […]

Candida albicans = assay: FACS binding of biotin-conjugated murine SAP to Candida albicans, with competition
Description: FIG. 16 depicts the binding of Sap on Candida. a) FACS analysis of binding of biotin-conjugated (b-) murine SAP (Sap; 10 μg/ml) to bastospore, yeast and hyphae of Candida albicans (1×10^8). Human SAP (50 μg/ml) was also used to compete binding of Sap. […] Survival of wt and Apcs^−/− mice after retroorbital injection of 1×10^6 blastospores of Candida albicans. wt, n=10; Apcs^−/− n=12.
as §1, with “95%. After washing with PBS^2+, pH 7.4, containing 0.01% (vol/vol) Tween-20 ® (Merck-Millipore), Cells (1×10^7 CFU) were incubated (1 h, r. t.) with biotin-labelled murine SAP (R&D Systems) at concentrations ranging from 0.1 to 10 μg/ml in PBS^2+, pH 7.4, containing 2% BSA (Sigma-Aldrich).” for “95%.”

Molecule | competition of murine SAP binding to A. fumigatus conidia (A. fumigatus conidia; competitor 50 μg/ml) | competition of Sap binding to Candida albicans (Candida albicans; competitor 50 μg/ml) | binding to A. fumigatus conidia (A. fumigatus conidia; FACS and confocal microscopy) | binding to blastospores, yeasts and hyphae of Candida albicans (Candida albicans; Sap 10 μg/ml)
human native SAP: Native SAP from human serum purchased by Merck-Millipore; Serum Amyloid P component, SEQ ID NO: 1 | competed | competed | – | –
B1 | – | – | bound viable dormant, swollen and germinated conidia | bound with low affinity
